Experimental findings from patent publication US20190308988A1, “OPIOID RECEPTOR ANTAGONIST PRODRUGS” (Nirsum Laboratories, Inc., priority 2017, published 2019) are described below.

Series [1] is described as follows: Plasma stability, human plasma (HPLC-MS). The series is classed as in vitro ADME. The conditions noted are these: 2 μM, 37° C., 15 min. The protocol:
Plasma Stability Determination of the Test Compounds in Rat, Dog, Cynomolgus Monkey and human plasma is performed using HPLC-MS. For rat, incubations are carried out in 96-well polypropylene plates in 5 aliquots of 70 μL each (one for each time point). […] Five time points are analyzed (0, 15, 120, 480 and 1440 min). […] All incubations are performed in duplicates. The samples are analyzed by HPLC-MS. The percentage of parent compound remaining after incubation in plasma is determined.

Series [2] in a line: Dog body weights and clinical observation (Tables 66-86). The class given is in vivo, Beagle dogs. The conditions noted are these: 48 mg/kg Shallow IM, dog D1002, 1128 hr. The protocol: Weight monitoring was done every week.
The dose formulation (concentration—400 mg base equivalents/ml in sesame oil+1% benzyl alcohol, unless otherwise specified) was administered via deep intramuscularly (unless otherwise specified). The injection vehicle was also dosed via deep intramuscular route (unless otherwise specified) on contralateral site of each animal at study initiation. The animals were sedated with Propofol at 6 mg/kg via IV administration. Following sedation hair was carefully removed from around the injection site and the area gently cleaned. Care will be taken to avoid irritating skin during shaving and cleaning the injection site. Then dogs will be dosed with deep IM administration. At least 2.5 cm depth from the surface into the central aspect of the quadriceps or biceps femoris muscle, by angling the needle toward the femur. If the needle hits the femur, simply draws back slightly and then inject. The dose volume will be determined by the animals' body weight collected on the morning of dosing day. For repeated administration, the injection sites may be rotated to minimize tissue injury.

For `C=C1CC[C@@]2(O)C3Cc4ccc(OCOC(=O)OCCCCCCCCCCCC)c5c4[C@@]2(CCN3CC2CC2)[C@H]1O5` [Compound 24, (((4aS,7aS,12bS)-3-(cyclopropylmethyl)-4a-hydroxy-7-methylene-2,3,4,4a,5,6,7,7a-octahydro-1H-4,12-methanobenzofuro[3,2-e]isoquinolin-9-yl)oxy)methyl dodecyl carbonate], in series [1], the “% remaining at time point in minutes, 15 min” value is given as 94%. For the same compound, the BT result in series [2] is “BT: 38.8 °C”.
